In brackets after ≈: the same amount, converted by molar mass. Activity calls are given as the source filed them. The calls are words filed in the database; no cut-off is given here.
Key:
[1] = Cardiotoxicity in Langendorff-perfused Wistar rat heart assessed as effect on RR time at 1 uM by ECG analysis (reference value: 230+/-8.7 milliseconds); format: toxicity, tissue-based
[2] = tested on: 1321N1; assay: Cytotoxicity against human 1321N1 cells assessed as inhibition of cell growth at 100 nM measured for 24 hrs by MTT assay; format: functional; design: scale not given: the % may be the effect or the level left
[3] = tested on: 1321N1; assay: Cytotoxicity against human 1321N1 cells assessed as inhibition of cell growth at 10 uM measured for 24 hrs by MTT assay; format: functional; design: scale not given: the % may be the effect or the level left
[4] = Cardiotoxicity in Langendorff-perfused Wistar rat heart assessed as effect on QTc interval time at 1 uM by ECG analysis (Rvb =72.1+/-1.4 milliseconds); format: toxicity, tissue-based
[5] = Cardiotoxicity in Langendorff-perfused Wistar rat heart assessed as effect on heart rate at 1 uM by ECG analysis (reference value: 263.5+/-8.2 bpm); format: toxicity, tissue-based
[6] = tested on: 1321N1; assay: Cytotoxicity against human 1321N1 cells assessed as inhibition of cell growth at 30 uM measured for 24 hrs by MTT assay; format: functional; design: scale not given: the % may be the effect or the level left
[7] = tested on: Hippocampus; assay: Neuroprotective activity against Wistar rat Hippocampus assessed as reduction in LPS/IFN-gamma induced PI uptake in CA1 region at 3 to 1000 nM measured for 96 hrs; format: functional, tissue-based; conditions: dose 3-1000 nM
[8] = tested on: 1321N1; assay: Cytotoxicity against human 1321N1 cells assessed as inhibition of cell growth at 1 uM measured for 24 hrs by MTT assay; format: functional; design: scale not given: the % may be the effect or the level left
[9] = target: T1, Monoglyceride lipase (Homo sapiens, UniProt Q99685); assay: Inhibition of human recombinant MAGL using 7-hydroxycoumarinyl arachidonate as substrate preincubated for 30 mins followed by substrate addition and measured after 30 mins by multimode plate reader analysis
T1 sequence (Q99685 whole entry): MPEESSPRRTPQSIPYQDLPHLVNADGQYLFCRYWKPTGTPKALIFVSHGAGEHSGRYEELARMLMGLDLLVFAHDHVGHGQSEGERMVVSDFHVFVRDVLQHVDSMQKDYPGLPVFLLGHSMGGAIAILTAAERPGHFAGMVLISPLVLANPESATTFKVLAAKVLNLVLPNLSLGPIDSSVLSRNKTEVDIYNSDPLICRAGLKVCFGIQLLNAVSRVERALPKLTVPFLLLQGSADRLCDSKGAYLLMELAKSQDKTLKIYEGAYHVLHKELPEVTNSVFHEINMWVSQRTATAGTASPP

[10] = Cardiotoxicity in Langendorff-perfused Wistar rat heart assessed as effect on RR time at 30 uM by ECG analysis (reference value: 230+/-8.7 milliseconds); format: toxicity, tissue-based
[11] = Cardiotoxicity in Langendorff-perfused Wistar rat heart assessed as effect on PQ interval time at 10 uM by ECG analysis (Rvb =40.8+/-2.3 milliseconds); format: toxicity, tissue-based
[12] = tested on: 1321N1; assay: Antiinflammatory activity against human 1321N1 cells assessed as reduction in TBHP-induced ROS production at 100 nM incubated for 24 hrs by CellROX green reagent based flow cytometry assay; format: functional, cell-based
[13] = target: T2, Fatty-acid amide hydrolase 1 (Homo sapiens, UniProt O00519); assay: Inhibition of human recombinant FAAH using AMC-AA as substrate preincubated for 30 mins followed by substrate addition and measured after 30 mins by multimode plate reader analysis
T2 sequence (O00519 whole entry): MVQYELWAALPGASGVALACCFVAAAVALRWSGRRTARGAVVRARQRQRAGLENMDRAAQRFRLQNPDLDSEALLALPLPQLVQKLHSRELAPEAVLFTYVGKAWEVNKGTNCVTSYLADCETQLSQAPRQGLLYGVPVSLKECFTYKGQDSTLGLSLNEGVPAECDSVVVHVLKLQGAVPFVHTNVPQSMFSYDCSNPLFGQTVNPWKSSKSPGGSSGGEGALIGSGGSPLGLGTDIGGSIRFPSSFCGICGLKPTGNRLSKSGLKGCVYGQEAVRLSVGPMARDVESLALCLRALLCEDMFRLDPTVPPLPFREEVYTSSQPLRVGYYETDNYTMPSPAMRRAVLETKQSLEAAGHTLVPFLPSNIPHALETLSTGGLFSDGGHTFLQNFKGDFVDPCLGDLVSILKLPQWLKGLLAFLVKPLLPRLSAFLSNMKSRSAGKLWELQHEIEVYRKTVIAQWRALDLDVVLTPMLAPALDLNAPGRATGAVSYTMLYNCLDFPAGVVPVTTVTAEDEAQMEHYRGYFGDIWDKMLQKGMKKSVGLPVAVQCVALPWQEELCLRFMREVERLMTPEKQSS

[14] = Neurotoxicity against Wistar rat Hippocampus assessed as cell survival at 0.3 to 100 nM measured for 96 hrs by densitometric analysis; format: toxicity, tissue-based; conditions: 0.1 µM, dose 0.3-100 nM
[15] = Chemical stability of the compound at pH 3 measured for 24 hrs by HPLC analysis; format: physicochemical; conditions: buffer, read-out: Stability
[16] = Cardiotoxicity in Langendorff-perfused Wistar rat heart assessed as effect on QTc interval time at 10 uM by ECG analysis (Rvb =72.1+/-1.4 milliseconds); format: toxicity, tissue-based
[17] = Cardiotoxicity in Langendorff-perfused Wistar rat heart assessed as effect on QRS interval time at 10 uM by ECG analysis (Rvb =13.6+/-0.7 milliseconds); format: toxicity, tissue-based
[18] = tested on: 1321N1; assay: Cytotoxicity against human 1321N1 cells assessed as inhibition of cell growth at 10 nM measured for 24 hrs by MTT assay; format: functional; design: scale not given: the % may be the effect or the level left
[19] = Cardiotoxicity in Langendorff-perfused Wistar rat heart assessed as effect on QTc interval time at 0.3 uM by ECG analysis (Rvb =72.1+/-1.4 milliseconds); format: toxicity, tissue-based
[20] = Cardiotoxicity in Langendorff-perfused Wistar rat heart assessed as effect on RR time at 10 uM by ECG analysis (reference value: 230+/-8.7 milliseconds); format: toxicity, tissue-based
[21] = Cardiotoxicity in Langendorff-perfused Wistar rat heart assessed as effect on PQ interval time at 30 uM by ECG analysis (Rvb =40.8+/-2.3 milliseconds); format: toxicity, tissue-based
[22] = Cardiotoxicity in Langendorff-perfused Wistar rat heart assessed as effect on heart rate at 30 uM by ECG analysis (reference value: 263.5+/-8.2 bpm); format: toxicity, tissue-based
[23] = Cardiotoxicity in Langendorff-perfused Wistar rat heart assessed as effect on heart rate at 10 uM by ECG analysis (reference value: 263.5+/-8.2 bpm); format: toxicity, tissue-based
[24] = Cardiotoxicity in Langendorff-perfused Wistar rat heart assessed as effect on PQ interval time at 1 uM by ECG analysis (Rvb =40.8+/-2.3 milliseconds); format: toxicity, tissue-based
[25] = tested on: Hippocampus; assay: Neuroprotective activity against Wistar rat Hippocampus assessed as reduction in LPS/IFN-gamma induced PI uptake in CA1 region at 30 to 100 nM measured for 96 hrs; format: functional, tissue-based; conditions: dose 30-100 nM
[26] = Cardiotoxicity in Langendorff-perfused Wistar rat heart assessed as effect on QRS interval time at 0.3 uM by ECG analysis (Rvb =13.6+/-0.7 milliseconds); format: toxicity, tissue-based
[27] = Cardiotoxicity in Langendorff-perfused Wistar rat heart assessed as effect on QRS interval time at 1 uM by ECG analysis (Rvb =13.6+/-0.7 milliseconds); format: toxicity, tissue-based
[28] = tested on: 1321N1; assay: Antiinflammatory activity against human 1321N1 cells assessed as reduction in TBHP-induced ROS production at 1 uM incubated for 24 hrs by CellROX green reagent based flow cytometry assay; format: functional, cell-based
[29] = Cardiotoxicity in Langendorff-perfused Wistar rat heart assessed as effect on heart rate at 0.3 uM by ECG analysis (reference value: 263.5+/-8.2 bpm); format: toxicity, tissue-based
[30] = Solubility of compound at pH 3 measured for 24 hrs; format: physicochemical; conditions: buffer
[31] = Cardiotoxicity in Langendorff-perfused Wistar rat heart assessed as effect on RR time at 0.3 uM by ECG analysis (reference value: 230+/-8.7 milliseconds); format: toxicity, tissue-based
[32] = Solubility of compound at pH 7.4 measured for 24 hrs; format: physicochemical; conditions: buffer
[33] = Cardiotoxicity in Langendorff-perfused Wistar rat heart assessed as effect on PQ interval time at 0.3 uM by ECG analysis (Rvb =40.8+/-2.3 milliseconds); format: toxicity, tissue-based
[34] = Cardiotoxicity in Langendorff-perfused Wistar rat heart assessed as effect on QRS interval time at 30 uM by ECG analysis (Rvb =13.6+/-0.7 milliseconds); format: toxicity, tissue-based
[35] = Cytotoxicity against mouse NIH3T3 cells assessed as inhibition of cell growth measured for 24 hrs by neutral red uptake assay; format: toxicity, cell-based
[36] = Chemical stability of the compound at pH 7.4 measured for 24 hrs by HPLC analysis; format: physicochemical; conditions: buffer, read-out: Stability
[37] = Cardiotoxicity in Langendorff-perfused Wistar rat heart assessed as effect on QTc interval time at 30 uM by ECG analysis (Rvb =72.1+/-1.4 milliseconds); format: toxicity, tissue-based

Compound: NC(=O)c1ccn(-c2cccc(OC(=O)N3CCN(CCCc4ccccc4)CC3)c2)c1
- Time [1]: 220.2 ms
- Activity [2]: 99.5%
- Activity [3]: 100%
- Time [4]: 70.6 ms
- Activity [5]: 273 bpm
- Activity [6]: 101.5%
- Activity [7]: Active
- Activity [8]: 100.3%
- IC50 [9]: > 10 µM
- Time [10]: 286.4 ms
- Time [11]: 41.2 ms
- Activity [12]: Active
- IC50 [13]: 0.0101 µM
- Activity [14]: Non-Toxic
- remaining at 24 h [15]: > 99%
- Time [16]: 71 ms
- Time [17]: 14 ms
- Activity [18]: 100.5%
- Time [19]: 70.6 ms
- Time [20]: 229.8 ms
- Time [21]: 54.8 ms
- Activity [22]: 190.2 bpm
- Activity [23]: 263.8 bpm
- Time [24]: 40.6 ms
- Activity [25]: Active
- Time [26]: 13.8 ms
- Time [27]: 13.8 ms
- Activity [28]: Active
- Activity [29]: 270 bpm
- solubility at 24 h [30]: 228 µM (≈ 98.6 µg/mL)
- Time [31]: 223.8 ms
- solubility at 24 h [32]: 42 µM (≈ 18.2 µg/mL)
- Time [33]: 39.2 ms
- Time [34]: 14.6 ms
- IC50 at 24 h [35]: 46 µM
- remaining at 24 h [36]: > 99%
- Time [37]: 73.5 ms

— ChEMBL document CHEMBL5331072, “Development of potent and selective FAAH inhibitors with improved drug-like properties as potential tools to treat neuroinflammatory conditions” (Eur J Med Chem, 2023)
